Experimental data published in patent publication US20070010671A1, “Novel quinazoline derivatives and methods of treatment related to the use thereof” (priority 2003, published 2007).

target: MCH receptor (Homo sapiens, UniProt Q99705); test: High throughput functional screening FLIPR/FDSS6000: inhibition of MCH-evoked intracellular Ca2+ changes; type: cell-based; details: class by percent of control at 10^-7 M or by IC50; read-out: class
Method in brief: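 Cells expressing constitutively active MCH receptor, loaded with 4 μM Fluo4-AM for 1 h at 37 °C, were pretreated 3 min with compound, then challenged with MCH (50 nM for antagonist testing). MCH-evoked [Ca2+]i transients followed by FLIPR or FDSS (ex 488/em 530 nm) over 290 s.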

`COc1ccc(CNC(=O)N[C@H]2CC[C@@H](Nc3nc(N(C)C)c4ccccc4n3)CC2)cc1` [compound 48, N-(cis-4-{[4-(dimethylamino)quinazolin-2-yl]amino}cyclohexyl)-N′-(4-methoxybenzyl)urea] was tested. Which IC50 did it give?
Its IC50 is 50 to 200 nM.

`Cc1cccc(CNC(=O)N[C@H]2CC[C@@H](Nc3nc(N(C)C)c4ccccc4n3)CC2)c1` [compound 49] was tested. Which IC50 did it give?
Its IC50 is over 200 nM.

For `CN(C)c1nc(N[C@H]2CC[C@@H](NC(=O)Nc3cccc4ccccc34)CC2)nc2ccccc12` [compound 50, N-(cis-4-{[4-(dimethylamino)quinazolin-2-yl]amino}cyclohexyl)-N′-1-napthylurea], which IC50 is on record?
Its IC50 is under 50 nM.

`CN(C)c1nc(N[C@H]2CC[C@@H](NC(=O)NC3C[C@H]3c3ccccc3)CC2)nc2ccccc12` (stereo partly drawn) [compound 51, N-(cis-4-{[4-(dimethylamino)quinazolin-2-yl]amino}cyclohexyl)-N′-[(2S)-2-phenylcyclopropyl]urea] was tested. Which IC50 did it give?
Its IC50 is under 50 nM.

With `CN(C)c1nc(N[C@H]2CC[C@@H](NC(=O)Nc3ccccc3)CC2)nc2ccccc12` [compound 52, N-(cis-4-{[4-(dimethylamino)quinazolin-2-yl]amino}cyclohexyl)-N′-phenylurea] as the compound, how does the IC50 read?
Its IC50 is 50 to 200 nM.

How did the IC50 turn out when `CN(C)c1nc(N[C@H]2CC[C@@H](NC(=O)Nc3ccc(Oc4ccccc4)cc3)CC2)nc2ccccc12` [compound 53, N-(cis-4-{[4-(dimethylamino)quinazolin-2-yl]amino}cyclohexyl)-N′-(4-phenoxyphenyl)urea] was run?
The IC50 was under 50 nM.

For `CCCCCNC(=O)N[C@H]1CC[C@@H](Nc2nc(N(C)C)c3ccccc3n2)CC1` [compound 54, N-(cis-4-{[4-(dimethylamino)quinazolin-2-yl]amino}cyclohexyl)-N′-pentylurea], which IC50 is on record?
The IC50 was under 50 nM.

With `CN(C)c1nc(N[C@H]2CC[C@@H](NC(=O)Nc3ccccc3C(F)(F)F)CC2)nc2ccccc12` [compound 55, N-(cis-4-{[4-(dimethylamino)quinazolin-2-yl]amino}cyclohexyl)-N′-[2-(trifluoromethyl)phenyl]urea] as the compound, how does the IC50 read?
Its IC50 is under 50 nM.

Which IC50 does the source give for `CN(C)c1nc(N[C@H]2CC[C@@H](NC(=O)Nc3cccc(C(F)(F)F)c3)CC2)nc2ccccc12` [compound 56] here?
The IC50 was over 200 nM.

How did the IC50 turn out when `Cc1ccc(NC(=O)N[C@H]2CC[C@@H](Nc3nc(N(C)C)c4ccccc4n3)CC2)cc1` [compound 57, N-(cis-4-{[4-(dimethylamino)quinazolin-2-yl]amino}cyclohexyl)-N′-(4-methylphenyl)urea] was run?
Its IC50 is 50 to 200 nM.

Which IC50 does the source give for `Cc1cc(C)c(NC(=O)N[C@H]2CC[C@@H](Nc3nc(N(C)C)c4ccccc4n3)CC2)c(C)c1` [compound 58, N-(cis-4-{[4-(dimethylamino)quinazolin-2-yl]amino}cyclohexyl)-N′-mesitylurea] here?
Its IC50 is under 50 nM.

`Cc1cccc(NC(=O)N[C@H]2CC[C@@H](Nc3nc(N(C)C)c4ccccc4n3)CC2)c1` [compound 59, N-(cis-4-{[4-(dimethylamino)quinazolin-2-yl]amino}cyclohexyl)-N′-(3-methylphenyl)urea] was tested. Which IC50 did it give?
The IC50 was 50 to 200 nM.

With `Cc1ccccc1NC(=O)N[C@H]1CC[C@@H](Nc2nc(N(C)C)c3ccccc3n2)CC1` [compound 60, N-(cis-4-{[4-(dimethylamino)quinazolin-2-yl]amino}cyclohexyl)-N′-(2-methylphenyl)urea] as the compound, how does the IC50 read?
Its IC50 is under 50 nM.

For `CC(NC(=O)N[C@H]1CC[C@@H](Nc2nc(N(C)C)c3ccccc3n2)CC1)c1cccc2ccccc12` (stereo partly drawn) [compound 61, N-(cis-4-{[4-(dimethylamino)quinazolin-2-yl]amino}cyclohexyl)-N′-[1-(-napthyl)ethyl]urea], which IC50 is on record?
Its IC50 is under 50 nM.

How did the IC50 turn out when `CN(C)c1nc(N[C@H]2CC[C@@H](NC(=O)Nc3c(Cl)cc(Cl)cc3Cl)CC2)nc2ccccc12` [compound 63, N-(cis-4-{[4-(dimethylamino)quinazolin-2-yl]amino}cyclohexyl)-N′-(2,4,6-trichlorophenyl)urea] was run?
Its IC50 is under 50 nM.

With `Cc1ccc(NC(=O)N[C@H]2CC[C@@H](Nc3nc(N(C)C)c4ccccc4n3)CC2)cc1Cl` [compound 64] as the compound, how does the IC50 read?
The IC50 was over 200 nM.

How did the IC50 turn out when `CC(NC(=O)NC1CCC(Nc2nc(N(C)C)c3ccccc3n2)CC1)c1ccccc1` (centres unmarked) [compound 66, 1-[4-(4-Dimethylamino-quinazolin-2-ylamino)-cyclohexyl]-3-(1-phenyl-ethyl)-urea] was run?
Its IC50 is under 50 nM.

With `CC(NC(=O)NC1CCC(Nc2nc(N(C)C)c3ccccc3n2)CC1)c1cccc2ccccc12` (centres unmarked) [compound 67, 1-[4-(4-Dimethylamino-quinazolin-2-ylamino)-cyclohexyl]-3-(1-napthalen-1-yl-ethyl)-urea] as the compound, how does the IC50 read?
The IC50 was 50 to 200 nM.

How did the IC50 turn out when `CC(C)c1cccc(C(C)C)c1NC(=O)N[C@H]1CC[C@@H](Nc2nc(N(C)C)c3ccccc3n2)CC1` [compound 68] was run?
Its IC50 is over 200 nM.

How did the IC50 turn out when `CN(C)c1nc(N[C@H]2CC[C@@H](NC(=O)Nc3ccccc3OC(F)F)CC2)nc2ccccc12` [compound 69] was run?
The IC50 was over 200 nM.

How did the IC50 turn out when `COC(=O)c1ccccc1NC(=O)N[C@H]1CC[C@@H](Nc2nc(N(C)C)c3ccccc3n2)CC1` [compound 70, metyl 2-({[4(cis-4-{[-(dimethylamino)quinazolin-2-yl]amino}cyclohexyl)amino]carbonyl}amino)benzoate] was run?
Its IC50 is over 200 nM.

For `CSc1ccccc1NC(=O)N[C@H]1CC[C@@H](Nc2nc(N(C)C)c3ccccc3n2)CC1` [compound 71], which IC50 is on record?
The IC50 was 50 to 200 nM.

`CN(C)c1nc(N[C@H]2CC[C@@H](NC(=O)Nc3c(Cl)c(Cl)cc(Cl)c3Cl)CC2)nc2ccccc12` [compound 72, N-(cis-4-{[4-(dimethylamino)quinazolin-2-yl]amino}cyclohexyl)-N′-(2,3,5,6-tetrachlorophenyl)urea] was tested. Which IC50 did it give?
The IC50 was under 50 nM.

How did the IC50 turn out when `Cc1ccc([N+](=O)[O-])c(NC(=O)N[C@H]2CC[C@@H](Nc3nc(N(C)C)c4ccccc4n3)CC2)c1C` [compound 73, N-(cis-4-{[4-(dimethylamino)quinazolin-2-yl]amino}cyclohexyl)-N′-(2,3-dimethyl-6-nitrophenyl)urea] was run?
Its IC50 is 50 to 200 nM.

How did the IC50 turn out when `CN(C)c1nc(N[C@H]2CC[C@@H](NC(=O)Nc3cc(Cl)c(Cl)cc3Cl)CC2)nc2ccccc12` [compound 74] was run?
The IC50 was over 200 nM.

How did the IC50 turn out when `CN(C)c1nc(N[C@H]2CC[C@@H](NC(=O)Nc3c(Br)cc(Br)cc3Br)CC2)nc2ccccc12` [compound 75, N-(cis-4-{[4-(dimethylamino)quinazolin-2-yl]amino}cyclohexyl)-N′-(2,4,6-tribromophenyl)urea] was run?
The IC50 was under 50 nM.

How did the IC50 turn out when `CN(C)c1nc(N[C@H]2CC[C@@H](NC(=O)Nc3c(F)cc(Br)cc3Br)CC2)nc2ccccc12` [compound 76, N-(2,4-dibromo-6-fluorophenyl)-N′-(cis-4-{[4-(dimethylamino)quinazolin-2-yl]amino}cyclohexyl)urea] was run?
The IC50 was under 50 nM.

`CN(C)c1nc(N[C@H]2CC[C@@H](NC(=O)Nc3ccc(Br)cc3Br)CC2)nc2ccccc12` [compound 77, N-(2,4-dibromophenyl)-N′-(cis-4-{[4-(dimethylamino)quinazolin-2-yl]amino}cyclohexyl)urea] was tested. Which IC50 did it give?
Its IC50 is under 50 nM.

Which IC50 does the source give for `CN(C)c1nc(N[C@H]2CC[C@@H](NC(=O)NCc3ccc(Cl)cc3Cl)CC2)nc2ccccc12` [compound 78, N-(2,4-dichlorobenzyl)-N′-(cis-4-{[4-(dimethylamino)quinazolin-2-yl]amino}cyclohexyl)urea] here?
Its IC50 is under 50 nM.

How did the IC50 turn out when `COc1ccc(NC(=O)N[C@H]2CC[C@@H](Nc3nc(N(C)C)c4ccccc4n3)CC2)c(OC)c1` [compound 79] was run?
The IC50 was under 50 nM.

With `Cc1ccc(NC(=O)N[C@H]2CC[C@@H](Nc3nc(N(C)C)c4ccccc4n3)CC2)c(C)c1` [compound 80] as the compound, how does the IC50 read?
The IC50 was over 200 nM.

How did the IC50 turn out when `COc1ccc(OC)c(NC(=O)N[C@H]2CC[C@@H](Nc3nc(N(C)C)c4ccccc4n3)CC2)c1` [compound 81] was run?
The IC50 was 50 to 200 nM.

For `Cc1ccc(C)c(NC(=O)N[C@H]2CC[C@@H](Nc3nc(N(C)C)c4ccccc4n3)CC2)c1` [compound 82], which IC50 is on record?
The IC50 was over 200 nM.

`CN(C)c1nc(N[C@H]2CC[C@@H](NC(=O)Nc3c(Br)cc(F)cc3Br)CC2)nc2ccccc12` [compound 83] was tested. Which IC50 did it give?
The IC50 was over 200 nM.

`CN(C)c1nc(N[C@H]2CC[C@@H](NC(=O)Nc3c(Cl)cccc3Cl)CC2)nc2ccccc12` [compound 84] was tested. Which IC50 did it give?
The IC50 was over 200 nM.

How did the IC50 turn out when `CCc1cccc(CC)c1NC(=O)N[C@H]1CC[C@@H](Nc2nc(N(C)C)c3ccccc3n2)CC1` [compound 85, N-(2,6-diethylphenyl)-N′-(cis-4-{[4-(dimethylamino)quinazolin-2-yl]amino}cyclohexyl)urea] was run?
Its IC50 is under 50 nM.

For `CN(C)c1nc(N[C@H]2CC[C@@H](NC(=O)Nc3ccccc3Cc3ccccc3)CC2)nc2ccccc12` [compound 86], which IC50 is on record?
The IC50 was over 200 nM.

How did the IC50 turn out when `Cc1ccc(Cl)c(NC(=O)N[C@H]2CC[C@@H](Nc3nc(N(C)C)c4ccccc4n3)CC2)c1` [compound 87] was run?
Its IC50 is over 200 nM.

`CN(C)c1nc(N[C@H]2CC[C@@H](NC(=O)Nc3cc([N+](=O)[O-])ccc3Cl)CC2)nc2ccccc12` [compound 88] was tested. Which IC50 did it give?
Its IC50 is 50 to 200 nM.

`CN(C)c1nc(N[C@H]2CC[C@@H](NC(=O)Nc3c(Cl)cccc3C(F)(F)F)CC2)nc2ccccc12` [compound 89, N-[2-chloro-6-(trifluoromethyl)phenyl]-N′-(cis-4-{[4-(dimethylamino)quinazolin-2-yl]amino}cyclohexyl)urea] was tested. Which IC50 did it give?
Its IC50 is under 50 nM.

Which IC50 does the source give for `Cc1cccc(Cl)c1NC(=O)N[C@H]1CC[C@@H](Nc2nc(N(C)C)c3ccccc3n2)CC1` [compound 90] here?
The IC50 was under 50 nM.

`CN(C)c1nc(N[C@H]2CC[C@@H](NC(=O)NCc3ccccc3Cl)CC2)nc2ccccc12` [compound 91, N-(2-chlorobenzyl)-N′-(cis-4-{[4-(dimethylamino)quinazolin-2-yl]amino}cyclohexyl)urea] was tested. Which IC50 did it give?
The IC50 was under 50 nM.

`CCOc1ccccc1NC(=O)N[C@H]1CC[C@@H](Nc2nc(N(C)C)c3ccccc3n2)CC1` [compound 93, N-(cis-4-{[4-(dimethylamino)quinazolin-2-yl]amino}cyclohexyl)-N′-(2-ethoxyphenyl)urea] was tested. Which IC50 did it give?
Its IC50 is under 50 nM.

How did the IC50 turn out when `CCc1cccc(C(C)C)c1NC(=O)N[C@H]1CC[C@@H](Nc2nc(N(C)C)c3ccccc3n2)CC1` [compound 94, N-(cis-4-{[4-(dimethylamino)quinazolin-2-yl]amino}cyclohexyl)-N′-(2-ethyl-6-isopropylphenyl)urea] was run?
The IC50 was under 50 nM.
